# Measured values taken from US20250381198A1 (Melt Pharmaceuticals, Inc., priority 2024, published 2025).
# Marks after values point to notes of the source that are not given here.
# Test system: subjects undergoing cataract extraction with lens replacement (CELR)
# Experiment: Phase 3: adverse events (safety analysis set)
# Assay type: in vivo, human
# Experimental: The safety of MELT-300 was performed at baseline, in the course of surgery (intraoperatively), postoperatively on Day 1, and on Day 3+1 day post dose of study medication. Safety assessment included monitoring of AEs, vital sign measurements, and physical examinations.
# An overview of adverse events (AEs) is provided in TABLE 57 for the safety analysis set. Reported data includes an overall summary of the presence of any AEs, treatment-emergent ocular adverse events (TEAEs), treatment-related TEAEs, TEAE of special interest (TEAESI), serious AEs (SEAs), and treatment-emergent SAEs (TESAE). Categories were not mutually exclusive. Results include the number of subjects, percent of subjects, and number of events in each category, respectively. A summary of treatment-emergence adverse events (TEAEs) by location, system organ class, and preferred term for the safety analysis set is provided in TABLE 58. A summary of treatment-related treatment-emergent adverse events (TRTEAEs) by system organ class, and preferred term for the safety analysis set is provided in TABLE 59. No SAEs (overall), TESAEs, or treatment-related TESAEs were observed. No SAEs resulting in death or discontinuation of the study was observed.
# [1] = Location: Ocular, Safety analysis set
# [2] = Location: Overall, Safety Analysis Set
# [3] = Location: Overall, Safety analysis set
smiles,measurement,setting,value
"Cc1ncc2n1-c1ccc(Cl)cc1C(c1ccccc1F)=NC2 [Midazolam, 8-chloro-6-(2-fluorophenyl)-1-methyl-4H-imidazo[1,5-a][1,4]benzodiazepine]","Any Unexpected Treatment-Related TEAE, subjects",[1],0 n (%)
same,"TEAESI: Abuse-related AEs, events",[1],0 #
same,"TEAESI: Abuse-related AEs, subjects",[1],0 n (%)
same,"TEAESI: Cardiovascular AEs, events",[1],0 #
same,"TEAESI: Cardiovascular AEs, subjects",[1],1 (1.1) n (%)
same,"TEAESI: Ketamine emergence delirium, events",[1],0 #
same,"TEAESI: Ketamine emergence delirium, subjects",[1],0 n (%)
same,"TEAESI: Neurocognitive AEs, events",[1],0 #
same,"TEAESI: Neurocognitive AEs, subjects",[1],0 n (%)
same,"TEAESI: Oral/pharyngeal AEs, events",[1],0 #
same,"TEAESI: Oral/pharyngeal AEs, subjects",[1],0 n (%)
same,"TEAESI: Oversedation requiring the use of flumazenil, events",[1],0 #
same,"TEAESI: Oversedation requiring the use of flumazenil, subjects",[1],0 n (%)
same,"TEAESI: Respiratory AEs, events",[1],0 #
same,"TEAESI: Respiratory AEs, subjects",[1],1 (1.1) n (%)
same,TEAE: Abnormal sensation in eye,[2],0 n
same,TEAE: Amnesia,[2],0 n
same,TEAE: Anxiety,[2],0 n
same,TEAE: Back pain,[2],0 n
same,TEAE: Balance disorder,[2],0 n
same,TEAE: Blood pressure increased,[2],0 n
same,TEAE: Blood pressure systolic increased,[2],0 n
same,TEAE: Bradycardia,[2],0 n
same,TEAE: Corneal abrasion,[2],0 n
same,TEAE: Corneal oedema,[2],0 n
same,TEAE: Cough,[2],0 n
same,TEAE: Dental local anaesthesia,[2],0 n
same,TEAE: Diplopia,[2],0 n
same,TEAE: Dizziness,[2],0 n
same,TEAE: Fatigue,[2],0 n
same,TEAE: Gastrointestinal disorders (System Organ Class),[2],0 n
same,TEAE: Glare,[2],0 n
same,TEAE: Hiccups,[2],0 n
same,TEAE: Hypertension,[2],0 n
same,TEAE: Hypoaesthesia oral,[2],0 n
same,TEAE: Infections and infestations (System Organ Class),[2],0 n
same,"TEAE: Injury, poisoning and procedural complications (System Organ Class)",[2],0 n
same,TEAE: Instillation site pain,[2],0 n
same,TEAE: Investigations (System Organ Class),[2],0 n
same,TEAE: Lacrimation increased,[2],0 n
same,TEAE: Lethargy,[2],0 n
same,TEAE: Musculoskeletal and connective tissue disorders (System Organ Class),[2],0 n
same,TEAE: Myalgia,[2],0 n
same,TEAE: Nasal Discomfort,[2],0 n
same,TEAE: Nausea,[2],0 n
same,TEAE: Neck pain,[2],0 n
same,TEAE: Ocular discomfort,[2],0 n
same,TEAE: Oxygen saturation decreased,[2],0 n
same,TEAE: Photophobia,[2],0 n
same,TEAE: Photopsia,[2],0 n
same,TEAE: Post procedural hypotension,[2],0 n
same,TEAE: Procedural nausea,[2],0 n
same,TEAE: Procedural pain,[2],0 n
same,TEAE: Procedural vomiting,[2],0 n
same,TEAE: Product after taste,[2],0 n
same,TEAE: Product issues (System Organ Class),[2],0 n
same,TEAE: Psychiatric disorders (System Organ Class),[2],0 n
same,TEAE: Pyrexia,[2],0 n
same,TEAE: Sinusitis,[2],0 n
same,TEAE: Surgical and medical procedures (System Organ Class),[2],0 n
same,TEAE: Taste disorder,[2],0 n
same,TEAE: Vascular disorders (System Organ Class),[2],0 n
same,TEAE: Visual field defect,[2],0 n
same,TEAE: Visual impairment,[2],0 n
same,"Any AE, events",[3],24 #
same,"Any AE, subjects",[3],16 (18.0) n (%)
same,"Any Grade 3+ TEAE, events",[3],0 #
same,"Any Grade 3+ TEAE, subjects",[3],0 n (%)
same,"Any SAE, events",[3],0 #
same,"Any SAE, subjects",[3],0 n (%)
same,"Any TEAE Resulting in Death, events",[3],0 #
same,"Any TEAE Resulting in Death, subjects",[3],0 n (%)
same,"Any TEAE Resulting in Study Drug Interruption, events",[3],0 #
same,"Any TEAE Resulting in Study Drug Interruption, subjects",[3],0 n (%)
same,"Any TEAE Resulting in Study Drug Withdrawal, events",[3],0 #
same,"Any TEAE Resulting in Study Drug Withdrawal, subjects",[3],0 n (%)
same,"Any TEAE, events",[3],20 #
same,"Any TEAE, subjects",[3],13 (14.6) n (%)
same,"Any TEAESI, events",[3],2 #
same,"Any TEAESI, subjects",[3],2 (2.2) n (%)
same,"Any TESAE, events",[3],0 #
same,"Any TESAE, subjects",[3],0 n (%)
same,"Any Treatment-Related TEAE Resulting in Death, events",[3],0 #
same,"Any Treatment-Related TEAE Resulting in Death, subjects",[3],0 n (%)
same,"Any Treatment-Related TEAE, events",[3],4 #
same,"Any Treatment-Related TEAE, subjects",[3],2 (2.2) n (%)
same,"Any Treatment-Related TEAESI, events",[3],1 #
same,"Any Treatment-Related TEAESI, subjects",[3],1 (1.1) n (%)
same,"Any Treatment-Related TESAE, events",[3],0 #
same,"Any Treatment-Related TESAE, subjects",[3],0 n (%)
same,"Any Unexpected TEAE, events",[3],9 #
same,"Any Unexpected TEAE, subjects",[3],6 (6.7) n (%)
same,"Any Unexpected Treatment-Related TEAE, events",[3],0 #
same,"Any Unexpected Treatment-Related TEAE, subjects",[3],0 n (%)
same,"TEAESI: Abuse-related AEs, events",[3],0 #
same,"TEAESI: Abuse-related AEs, subjects",[3],0 n (%)
same,"TEAESI: Cardiovascular AEs, events",[3],1 #
same,"TEAESI: Cardiovascular AEs, subjects",[3],1 (1.1) n (%)
same,"TEAESI: Ketamine emergence delirium, events",[3],0 #
same,"TEAESI: Ketamine emergence delirium, subjects",[3],0 n (%)
same,"TEAESI: Neurocognitive AEs, events",[3],0 #
same,"TEAESI: Neurocognitive AEs, subjects",[3],0 n (%)
same,"TEAESI: Oral/pharyngeal AEs, events",[3],0 #
same,"TEAESI: Oral/pharyngeal AEs, subjects",[3],0 n (%)
same,"TEAESI: Oversedation requiring the use of flumazenil, events",[3],0 #
same,"TEAESI: Oversedation requiring the use of flumazenil, subjects",[3],0 n (%)
same,"TEAESI: Respiratory AEs, events",[3],1 #
same,"TEAESI: Respiratory AEs, subjects",[3],1 (1.1) n (%)
same,Treatment-related TEAE: Anxiety,Safety Analysis Set,0 n
same,Treatment-related TEAE: Blood pressure increased,Safety Analysis Set,0 n
same,Treatment-related TEAE: Bradycardia,Safety Analysis Set,0 n
same,Treatment-related TEAE: Cardiac disorders (System Organ Class),Safety Analysis Set,0 n
same,Treatment-related TEAE: Dental local anaesthesia,Safety Analysis Set,0 n
same,Treatment-related TEAE: Dizziness,Safety Analysis Set,0 n
same,Treatment-related TEAE: Eye disorders (System Organ Class),Safety Analysis Set,0 n
same,Treatment-related TEAE: Hiccups,Safety Analysis Set,0 n
same,"Treatment-related TEAE: Injury, poisoning and procedural complications (System Organ Class)",Safety Analysis Set,0 n
same,Treatment-related TEAE: Investigations (System Organ Class),Safety Analysis Set,0 n
same,Treatment-related TEAE: Lethargy,Safety Analysis Set,0 n
same,Treatment-related TEAE: Oxygen saturation decreased,Safety Analysis Set,0 n
same,Treatment-related TEAE: Procedural nausea,Safety Analysis Set,0 n
same,Treatment-related TEAE: Procedural vomiting,Safety Analysis Set,0 n
same,Treatment-related TEAE: Product after taste,Safety Analysis Set,0 n
same,Treatment-related TEAE: Product issues (System Organ Class),Safety Analysis Set,0 n
same,Treatment-related TEAE: Psychiatric disorders (System Organ Class),Safety Analysis Set,0 n
same,Treatment-related TEAE: Surgical and medical procedures (System Organ Class),Safety Analysis Set,0 n
same,Treatment-related TEAE: Tachycardia,Safety Analysis Set,0 n
same,Treatment-related TEAE: Visual impairment,Safety Analysis Set,0 n
